# Data published in patent US9560851B2, “Pesticidal mixtures including spiroheterocyclic pyrrolidine diones” (Syngenta Participations AG, priority 2012, dated 2017).
# Assays:
# [1] = test system: Tetranychus urticae (Two-Spotted Spider Mite); test: Tetranychus urticae feeding/contact activity, preventive (bean leaf discs); type: in vivo; details: mobile stages
# Description: Tetranychus urticae (Two-Spotted Spider Mite): feeding/contact activity, preventive
# Bean leaf discs on agar in 24-well microtiter plates were sprayed with the DMSO test solutions of certain Mixtures (as provided by Table 45). After drying, the leaf discs were infested with mite populations of mixed ages. 8 days later, discs were checked for mortality against mobile stages.
# [2] = test system: Myzus persicae (Green Peach Aphid); test: Myzus persicae feeding/residual contact activity, preventive (sunflower leaf discs); type: in vivo; details: Acetamiprid alone, 6 DAT
# Experimental: Myzus persicae (Green Peach Aphid):
# feeding/residual contact activity, preventive
# Sunflower leaf discs were placed on agar in a 24-well microtiter plate and sprayed with the DMSO test solutions of Mixtures (as provided by Table 45). After drying, the leaf discs were infested with an aphid population of mixed ages. After an incubation period of 6 DAT (days after treatment), samples were checked for mortality.
smiles,measurement,setting,value
C/C(=N\C#N)N(C)Cc1ccc(Cl)nc1 [Acetamiprid],AVERAGE DEAD IN % AFTER 8 DAYS,"[1]; Table 47, Acetamiprid alone, 50 PPM AI",0%
same,AVERAGE DEAD IN % AFTER 8 DAYS,"[1]; Table 47, Acetamiprid alone, 100 PPM AI",0%
same,AVERAGE DEAD IN % AFTER 8 DAYS,"[1]; Table 47, Acetamiprid alone, 200 PPM AI",0%
same,AVERAGE DEAD IN % AFTER 8 DAYS,"[1]; Table 47, Acetamiprid alone, 400 PPM AI",0%
same,AVERAGE DEAD IN % AFTER 8 DAYS,"[1]; Table 47, Acetamiprid alone, 800 PPM AI",0%
same,AVERAGE DEAD IN % AFTER 8 DAYS,"[1]; Table 48, Acetamiprid alone, 50 PPM AI",0%
same,AVERAGE DEAD IN % AFTER 8 DAYS,"[1]; Table 48, Acetamiprid alone, 100 PPM AI",0%
same,AVERAGE DEAD IN % AFTER 8 DAYS,"[1]; Table 48, Acetamiprid alone, 200 PPM AI",0%
same,AVERAGE DEAD IN % AFTER 8 DAYS,"[1]; Table 48, Acetamiprid alone, 400 PPM AI",0%
same,AVERAGE DEAD IN % AFTER 8 DAYS,"[1]; Table 48, Acetamiprid alone, 800 PPM AI",0%
same,AVERAGE DEAD IN % AFTER 6 DAYS,[2]; 0.1 PPM AI,0%
same,AVERAGE DEAD IN % AFTER 6 DAYS,[2]; 0.2 PPM AI,0%
same,AVERAGE DEAD IN % AFTER 6 DAYS,[2]; 0.4 PPM AI,0%
same,AVERAGE DEAD IN % AFTER 6 DAYS,[2]; 0.8 PPM AI,0%
same,AVERAGE DEAD IN % AFTER 6 DAYS,[2]; 1.6 PPM AI,27%
